Laboratory results: patent US20230255873A1, “COSMETIC OR DERMATOLOGICAL PEPTIDE-BASED TREATMENT OF THE SKIN AND ITS INTEGUMENTS” (Sederma, priority 2020, published 2023)
The star is where a group is joined. Palmitoyl = CCCCCCCCCCCCCCCC(=O)*

How the values were obtained:
[1] = system: normal human keratinocytes (NHK); assay: DNA Microarray on NHK culture; assay type: cell-based; settings: 9 ppm, 24 hours, confluent NHKs
Experimental: 1.2—DNA Microarray-Technology NHK Culture Principle: the peptide according to the invention at 9 ppm is brought into contact for 24 hours with confluent NHKs (versus control case). Then the NHKs layers are rinsed, and the cells are crushed to extract their mRNA. These mRNAs are then converted into DNA sequences which are analyzed after deposition on DNA chips and amplification by a method similar to qRT-PCR (Real-time Quantitative Reverse Transcription Polymerase Chain Reaction). The mRNA variations due to the peptide are compared to the control case (the solvent of the peptide). The results are expressed as an expression ratio between the treated case and the control case. A ratio greater than 2 is considered to be induction of gene expression ([…]).

[2] = system: P. acnes; assay: Persistent effect on P. acnes growth after removal of the peptide; assay type: cell-based, Propionibacterium acnes; settings: 48 hours of contact, then fresh medium without peptide
Experimental: This study was also carried out to follow the persistent effect of the peptide according to the invention on P. acnes, and to see if the inhibition can be quickly lifted in the absence of the peptide. The peptide was brought into contact with the cells from the start, as before. After 48 hours of contact and evaluation of the quantity of cells, the cells of all the cases were centrifuged and returned to a fresh medium without solvent or peptide, all the cases having the same quantity of cells. The growth was then assessed again.

[3] = system: HaCaT (human keratinocyte line); assay: ELISA assay of hyaluronic acid on HaCaT culture; assay type: cell-based; settings: 72 hours of contact
Experimental: This same type of test was carried out on a HaCaT culture (human keratinocyte line), but without the irradiation step, with a contact time of 72 hours between the cells and the peptide of the invention and an ELISA assay of hyaluronic acid on the culture medium.

[4] = system: P. acnes (strain ATCC6919); assay: Adhesion of P. acnes to a surface; assay type: cell-based, Propionibacterium acnes; settings: 48 hours and 72 hours, two concentrations tested
Source text: […] At the end of the contact plus more or less the peptide, the quantity of isolated cells, not attached, was estimated by an OD at 600 nm.

[5] = system: normal human keratinocytes (NHK); assay: Involucrin quantification by immunohistochemistry in NHK; assay type: cell-based; settings: 5 ppm
Experimental: Normal human keratinocytes (NHK) are grown on wells plate. When subconfluence was reached, cells received various concentrations of the peptides. After few days, evaluation of differentiation is compared to solvent control under microscope and cells are fixed to allow the study of involucrin by immunohistochemistry.
Involucrin is an early marker of keratinocytes differentiation. The below table show the percentage of variation of involucrin vs. Control.

[6] = system: P. acnes; assay: P. acnes growth curve (time to OD600 nm = 0.5); assay type: cell-based, Propionibacterium acnes; settings: for Time (in hour) to reach OD600 nm = 0.5: vehicle 42-44 h
Experimental: 1—P. acnes growth curve (same protocol as described above at point 1.4)
P. acnes is thawed and grown over 3 days in M20 media. Then, optical density at 600 nm (OD600) is measured and 2×10^6 CFU*/mL are plated in well plates. P. acnes is then treated with 6 ppm, 9 ppm and 12 ppm of peptides. To follow bacterial cell multiplication, OD600 is measured regularly for about 1 week. […] Statistical evaluations are performed on results using a Student t test. Two independent experiments are performed (N=2).

[7] = system: S. epidermidis; assay: S. epidermidis growth (selectivity test); assay type: cell-based; settings: 6 ppm and 12 ppm, 48 hours
Experimental: S. epidermidis was inoculated in an appropriate medium and its growth was followed over time. The peptide according to the invention (6 ppm and 12 ppm) was tested on these cells for 48 hours in comparison with the control case (n=6).

[8] = system: P. acnes (strain ATCC6919); assay: Biofilm formation of P. acnes (crystal violet); assay type: cell-based, Propionibacterium acnes; settings: 3 days
Experimental: The adhesion of 10^6 CFU/mL of P. acnes (strain ATCC6919) to a surface for 72 hours in an appropriate medium was evaluated. At the end of the contact plus more or less the peptide, the quantity of isolated cells, not attached, was estimated by an OD at 600 nm. The biofilm and the bacteria still attached were labeled with crystal violet solution for 20 min. After rinsing, the quantity of crystal violet remaining on the biofilms was assayed, after extraction, also with a measurement of OD at 600 nm.

[9] = system: extracellular lipases of P. acnes; assay: Lipase activity of P. acnes (4-MUO probe); assay type: biochemical, Propionibacterium acnes; settings: vs solvent control, n = 6
Experimental: A culture of P. acnes was carried out. The cells were then separated from the culture medium containing the lipases excreted by P. acnes. The peptide of the invention was added to samples of this cell-free medium and lipase activity was monitored using a fluorescent 4-methylumbelliferyl oleate (4-MUO) probe which is converted by lipases to fluorescent 4-methylumbelliferone, and whose signal has been recorded.

Substance: palmitoyl-lysyl-threonyl-serine-lysyl-serine (Palmitoyl-KTSKS-OH; SMILES CCCCCCCCCCCCCCCC(=O)N[C@@H](CCCCN)C(=O)N[C@H](C(=O)N[C@@H](CO)C(=O)N[C@@H](CCCCN)C(=O)N[C@@H](CO)C(=O)O)[C@@H](C)O) [Pal-KTSKS]
- Expressed gene ABHD5 (1-acylglycerol-3-phosphate O-acyltransferase): variation compared to the control [1]: ×2.14
- Expressed gene ANXA1 (Annexin A1): variation compared to the control [1]: ×3.05
- Expressed gene AQP5 (Aquaporin 5): variation compared to the control [1]: ×3.11
- Expressed gene CALML5 (Calmodulin-like protein-5): variation compared to the control [1]: ×10.73
- Expressed gene CERS3 (Ceramide synthase 3): variation compared to the control [1]: ×2.38
- Expressed gene CGNL1 (Cingulin-like protein-1): variation compared to the control [1]: ×26.40
- Expressed gene CLDN7 (Claudin): variation compared to the control [1]: ×7.24
- Expressed gene CLDN23 (Claudin): variation compared to the control [1]: ×2.69
- Expressed gene CRNN (Cornulin): variation compared to the control [1]: ×258.60
- Expressed gene DEFB1 (Beta-1-defensin): variation compared to the control [1]: ×4.48
- Expressed gene DEFB103B (Human beta defensin-3): variation compared to the control [1]: ×337.87
- Expressed gene DMKN (Dermokin): variation compared to the control [1]: ×3.58
- Expressed gene ELOVL4 (3-keto acyl-CoA synthase): variation compared to the control [1]: ×5.06
- Expressed gene FLG2 (Filaggrine-2): variation compared to the control [1]: ×197
- Expressed gene HMOX1 (Heme Oxygenase-1): variation compared to the control [1]: ×29.27
- Expressed gene IL37 (Interleukin-37): variation compared to the control [1]: ×7.82
- Expressed gene IVL (Involucrin): variation compared to the control [1]: ×8.43
- Expressed gene KLK5 (Kallikrein 5): variation compared to the control [1]: ×2.2
- Expressed gene LCE2C: variation compared to the control [1]: ×37.7
- Expressed gene LCE3A (Late Cornified Envelop Protein): variation compared to the control [1]: ×306.86
- Expressed gene LCE3B: variation compared to the control [1]: ×324.01
- Expressed gene LCE3D: variation compared to the control [1]: ×1454.67
- Expressed gene LOR (Loricrin): variation compared to the control [1]: ×193
- Expressed gene OCLN (Occludin): variation compared to the control [1]: ×8.65
- Expressed gene PADI-1 (Peptidyl Arginin Deaminase): variation compared to the control [1]: ×185.61
- Expressed gene PI3 (Elafin): variation compared to the control [1]: ×7.73
- Expressed gene PRSS8 (Serine protease-8): variation compared to the control [1]: ×2.74
- Expressed gene RNASE7 (RNase 7): variation compared to the control [1]: ×40.85
- Expressed gene S100A7 (Psoriasin): variation compared to the control [1]: ×15.73
- Expressed gene SPINK5 (Serine protease inhibitor Kazal-type 5): variation compared to the control [1]: ×3.77
- Expressed gene SPRR1A (Small Proline Rich Region Protein): variation compared to the control [1]: ×2.00
- Expressed gene SPRR2A: variation compared to the control [1]: ×24.09
- Expressed gene SPRR2B: variation compared to the control [1]: ×451.61
- Expressed gene SPRR2C: variation compared to the control [1]: ×15.35
- Expressed gene SPRR2D: variation compared to the control [1]: ×23.97
- Expressed gene SPRR2E: variation compared to the control [1]: ×12.48
- Expressed gene SPRR2F: variation compared to the control [1]: ×15.29
- Expressed gene SPRR2G: variation compared to the control [1]: ×687.57
- Expressed gene SPRR3: variation compared to the control [1]: ×48.62
- Expressed gene SPRR4: variation compared to the control [1]: ×23.16
- Expressed gene TGM1 (Transglutaminase-1): variation compared to the control [1]: ×4.66
- Expressed gene TGM5 (Transglutaminase-5): variation compared to the control [1]: ×27.1
- Expressed gene TIMP1 (Metallopeptidase inhibitor 1): variation compared to the control [1]: ×3.68
- Expressed gene TIMP2 (Metallopeptidase inhibitor 2): variation compared to the control [1]: ×5.96
- Expressed gene TJP1 (Tight junction protein ZO-1): variation compared to the control [1]: ×2.02
- Persistent effect on P. acnes growth once the peptide is removed [2]: no persistent effect
- Secretion of hyaluronic acid, Variation %/non treated cells ([3]; 6 ppm): +33%; p < 0.01
- Secretion of hyaluronic acid, Variation %/non treated cells ([3]; 8 ppm): +42%; p < 0.01
- Secretion of hyaluronic acid, Variation %/non treated cells ([3]; 10 ppm): +62%; p < 0.01
- Secretion of hyaluronic acid, Variation %/non treated cells ([3]; 15 ppm): +107%; p < 0.01
- Drop in adhesion of P. acnes [4]: more than 83%
- Involucrin (% var vs. Control) [5]: +177%; p < 0.01
- Delay in P. acnes growth versus vehicle ([6]; 6 ppm): +5 h
- Time (in hour) to reach OD600 nm = 0.5 ([6]; 6 ppm): 48.8 h
- Delay in P. acnes growth versus vehicle ([6]; 9 ppm): +11 h
- Time (in hour) to reach OD600 nm = 0.5 ([6]; 9 ppm): 55.0 h
- Delay in P. acnes growth versus vehicle ([6]; 12 ppm): +43 h
- Time (in hour) to reach OD600 nm = 0.5 ([6]; 12 ppm): 87.3 h
- Growth of S. epidermidis relative to control [7]: slight, temporary slowdown in growth
- Formation of the biofilm by P. acnes, variation vs control ([8]; 6 ppm): −98%
- Formation of the biofilm by P. acnes, variation vs control ([8]; 12 ppm): −99%
- Lipase activity of P. acnes, Variation (%) ([9]; 6 ppm of peptide): −22%; p < 0.01
- Lipase activity of P. acnes, Variation (%) ([9]; 9 ppm of peptide): −64%; p < 0.01
- Lipase activity of P. acnes, Variation (%) ([9]; 12 ppm of peptide): −88%; p < 0.01
